Source: paper PMC3252702 (ChemMedChem, 2010)

How the values were obtained:
[1] = biological target: EtCRK2 (Eimeria tenella, UniProt Q6R8F0); assay: TR-FRET; type: biochemical
[2] = biological target: HsCDK2 (Homo sapiens, UniProt P24941); assay: biochemical
[3] = test system: E. tenella schizont development; assay: Schizont maturation assay; type: cell-based, Eimeria tenella; conditions: n=2

EtCRK2, sequence (Q6R8F0 1-296): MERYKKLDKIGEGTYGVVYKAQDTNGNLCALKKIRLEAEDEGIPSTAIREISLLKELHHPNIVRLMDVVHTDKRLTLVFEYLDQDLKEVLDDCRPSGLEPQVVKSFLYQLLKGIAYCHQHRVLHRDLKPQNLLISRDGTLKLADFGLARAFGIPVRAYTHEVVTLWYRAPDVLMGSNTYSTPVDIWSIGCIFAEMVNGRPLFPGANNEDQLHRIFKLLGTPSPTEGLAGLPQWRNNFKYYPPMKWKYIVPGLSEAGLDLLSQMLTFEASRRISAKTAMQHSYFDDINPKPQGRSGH

Structure (SMILES)	IC50 [1] [µM]	Ki [1] [µM]	IC50 [2] [µM]	Ki [2] [µM]	inhibition of E. tenella schizont development ([3]; 150 nM)	inhibition of E. tenella schizont development ([3]; 300 nM)	inhibition of E. tenella schizont development ([3]; concentrations below 80 nM)
O=C(O)CN1C(=O)/C(=C2\SC(=S)NC2=O)c2ccccc21 [BES062021, 2-[(3Z)-2-oxo-3-(4-oxo-2-thioxo-thiazolidin-5-ylidene)indolin-1-yl]acetic acid]	23 ± 14	16 ± 9	26 ± 19	17 ± 8			
CCN(CC)S(=O)(=O)c1ccc2c3c(cccc13)C(=O)N2 [BES143551, N,N-diethyl-2-oxo-1,2-dihydrobenzo[cd]indole-6-sulfonamide]	36 ± 8	6 ± 2	12 ± 7	2 ± 1			
Cc1c(CCC(=O)O)c(=O)n2c([nH]c3ccccc32)c1C#N [BES241415, 3-(4-cyano-3-methyl-1-oxo-5H-pyrido[1,2-a]benzimidazol-2-yl)propanoic acid]	61 ± 27	83 ± 29					
O=C1NC(=Nc2nc3cc([N+](=O)[O-])ccc3[nH]2)NC1=O [BES252034, 2-[(5-nitro-1H-benzimidazol-2-yl)imino]imidazolidine-4,5-dione]	15 ± 3	8 ± 2	35 ± 3	8 ± 2			
CN1CC[C@H](c2c(O)cc(O)c3c(=O)cc(-c4ccccc4Cl)oc23)[C@H](O)C1 [Flavopiridol, 2-(2-Chlorophenyl)-5,7-dihydroxy-8-[(3S,4R)-3-hydroxy-1-methyl-4-piperidinyl]-4H-1-benzopyran-4-one]					fully inhibited	fully inhibited	no inhibitory effects
